Reference: PMC11191602, “A novel and selective fluorescent ligand for the study of adenosine A2B receptors” (Pharmacology Research & Perspectives, 2024)

Assays:
NLuc‐A2BR = target: T1, NLuc‐A2BR (Homo sapiens, UniProt P29275); assay: cAMP GloSensor luminescence assay in HEK293G cells overexpressing NLuc‐A2BR; type: cell-based; details: 20 nM and 200 nM PSB603‐BY630, overexpressed NLuc‐A2BR
T1 construct: expressed in transfected cells
T1 sequence (P29275 1-332): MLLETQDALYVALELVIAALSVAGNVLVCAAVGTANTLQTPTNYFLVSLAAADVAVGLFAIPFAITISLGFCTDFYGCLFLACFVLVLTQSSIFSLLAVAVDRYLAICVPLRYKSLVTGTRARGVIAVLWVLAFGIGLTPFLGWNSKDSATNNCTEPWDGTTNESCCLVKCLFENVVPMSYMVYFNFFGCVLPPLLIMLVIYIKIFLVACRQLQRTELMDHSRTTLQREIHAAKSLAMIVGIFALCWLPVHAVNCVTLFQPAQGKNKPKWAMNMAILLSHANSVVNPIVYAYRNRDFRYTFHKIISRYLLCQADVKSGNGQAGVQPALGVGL
Method: The cAMP GloSensor™ luminescence assay was performed according to the manufacturer's instructions (Promega Corporation, Madison, WI, USA). Briefly, after 24 h incubation at 37°C and 5% CO2 after cell plating (40 000 cells/well in 100 μL), medium was aspirated from each well of the 96‐well plate. Cells were incubated in 50 μL HEPES buffered saline solution (HBSS; 2 mM sodium pyruvate, 145 mM NaCl, 10 mM D‐glucose, 5 mM KCl, 1 mM MgSO4.7H2O, 10 mM HEPES, 1.3 mM CaCl2, 1.5 mM NaHCO3 in double‐distilled water, pH 7.45) containing 3% GloSensor™ cAMP reagent at 37°C for 1.5 h. For agonist studies, an initial baseline luminescence read was made at time zero, the plate was then removed from the plate‐reader and a further 50 μL HBSS containing agonist (2× final concentration) or HBSS (vehicle control) added. Luminescence was measured on an open channel (gain of 3600) immediately after these additions, and then continuously over 60 min, reading each well once every minute, by a PHERAstar FSX microplate reader (BMG Labtech, Offenburg, Germany) at 37°C. Increases in luminescence are indicative of intracellular cAMP accumulation, thus the temporal changes in relative cytosolic cAMP concentration were measured upon agonist or vehicle addition. Antagonist action was determined following 30 min pre‐incubation of HBSS in the presence of 20 and 200 nM PSB603‐BY630 and read as above. All conditions were performed in triplicates within each plate.

human NLuc‐A2AR = target: T2, human NLuc‐A2AR (Homo sapiens, UniProt P29274); assay: NanoBRET saturation binding in HEK293G cells transiently transfected with NLuc‐A2AR; details: non‐specific defined with 1 μM SCH58261; PSB603‐BY630 at concentrations up to 500 nM
T2 construct: expressed in transfected cells; host or cells: HEK293G, transient transfection with pcDNA3.1 NLuc-A2AR (FuGENE HD)
T2 sequence (P29274 whole entry): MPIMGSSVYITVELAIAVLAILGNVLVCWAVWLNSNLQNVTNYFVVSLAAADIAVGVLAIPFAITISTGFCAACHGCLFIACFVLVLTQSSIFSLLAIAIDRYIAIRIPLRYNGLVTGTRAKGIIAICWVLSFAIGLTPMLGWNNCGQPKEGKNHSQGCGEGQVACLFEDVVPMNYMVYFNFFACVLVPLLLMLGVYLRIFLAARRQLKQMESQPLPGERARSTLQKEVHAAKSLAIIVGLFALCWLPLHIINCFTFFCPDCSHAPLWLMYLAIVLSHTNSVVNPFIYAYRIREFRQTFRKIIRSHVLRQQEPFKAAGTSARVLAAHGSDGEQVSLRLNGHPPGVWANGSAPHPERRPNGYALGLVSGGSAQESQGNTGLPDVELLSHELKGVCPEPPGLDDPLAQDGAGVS
Method: The human A2A receptor cDNA was obtained from Missouri S&T cDNA Resource Centre (www.cdna.org) in a pcDNA3.1 expression vector. An N‐terminal nanoluciferase (NLuc)‐labeled human A2AR receptor constructs (NLuc‐A2AR) was then generated in frame with the full length NLuc incorporating a rat 5‐HT3A membrane localisation signal sequence in pcDNA3.1 as described previously.[37] For transient transfections, HEK293G cells were seeded at 20000 cells/well into white walled, clear bottomed 96‐wells plates (Greiner Bio‐One, Stonehouse, UK), coated with 10 μg/mL poly‐D‐lysine, in 100 μL medium/well and incubated at 37°C and 5% CO2 for 18–24 h. […]
Saturation and competition binding assays were performed as previously described.[36] […] The resulting bioluminescence resonance energy transfer (BRET) was measured using a PHERAstar FS plate reader (BMG Labtech) at 37°C. For each well, filtered light emissions at 460 nm (80 nm bandpass) and >610 nm (longpass) for the BODIPY630/650 ligand were simultaneously measured. BRET ratios were calculated by dividing the 610 nm emission by the 460 nm emission. […] For kinetic experiments, cells were preincubated for 10 min with 1:400 dilution of furimazine prior to addition of 200 nM PSB603‐BY630 and BRET ratios determined every 0.5 min. […]

human NLuc‐A3R = target: T3, human NLuc‐A3R (Homo sapiens, UniProt P0DMS8); assay: NanoBRET saturation binding in stable HEK293G cell line expressing NLuc‐A3R; details: non‐specific defined with 1 μM MRS‐1220; PSB603‐BY630 at concentrations up to 500 nM
T3 construct: expressed in transfected cells
T3 sequence (P0DMS8 1-318): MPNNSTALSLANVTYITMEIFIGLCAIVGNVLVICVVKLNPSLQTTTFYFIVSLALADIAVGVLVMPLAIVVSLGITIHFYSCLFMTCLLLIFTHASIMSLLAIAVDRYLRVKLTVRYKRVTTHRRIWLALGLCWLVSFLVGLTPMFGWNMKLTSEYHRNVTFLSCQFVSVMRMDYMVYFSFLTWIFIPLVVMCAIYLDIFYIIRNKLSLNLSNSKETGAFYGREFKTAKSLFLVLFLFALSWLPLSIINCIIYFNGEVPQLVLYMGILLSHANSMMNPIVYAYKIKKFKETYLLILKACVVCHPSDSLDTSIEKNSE
Method: Saturation and competition binding assays were performed as previously described.[36] Briefly, cells were seeded in 96‐well white clear‐bottomed Greiner plates pre‐treated with 10 μg/mL poly‐D‐lysine (Sigma‐Aldrich, Missouri USA) at a density of 30 000–35 000 cells per well in DMEM supplemented with 10% FBS. […] The NanoLuc substrate, furimazine (Promega Corporation, Wisconsin, USA), was then added to each well (1:400 dilution) and the plate was incubated for 10 min in the dark at 37°C. The resulting bioluminescence resonance energy transfer (BRET) was measured using a PHERAstar FS plate reader (BMG Labtech) at 37°C. For each well, filtered light emissions at 460 nm (80 nm bandpass) and >610 nm (longpass) for the BODIPY630/650 ligand were simultaneously measured. BRET ratios were calculated by dividing the 610 nm emission by the 460 nm emission. All conditions were performed in 2–6 replicates within each plate. For kinetic experiments, cells were preincubated for 10 min with 1:400 dilution of furimazine prior to addition of 200 nM PSB603‐BY630 and BRET ratios determined every 0.5 min. At 60 min, 10 μM MRS‐1706 was added and the ligand‐binding kinetics followed for a further 60 min.

specific binding to NLuc‐A2AR (human NLuc‐A2AR): negligible
specific binding to NLuc‐A3R (human NLuc‐A3R): negligible
SMILES: CCCn1c(=O)[nH]c2[nH]c(-c3ccc(S(=O)(=O)N4CCN(c5ccc(OCCNC(=O)CCCCCNC(=O)COc6ccc(/C=C/C7=[N+]8C(=Cc9ccc(-c%10cccs%10)n9[B-]8(F)F)C=C7)cc6)cc5)CC4)cc3)nc2c1=O [PSB603‐BY630]
effect on cAMP concentration‐response curve to BAY 60–6583 (NLuc‐A2BR): small increase in the EC50 for BAY 60–6583
